These are literature values, as cited in patent publication US12201674B2 (EDIX SA, priority 2018, dated 2025).

Among the targets are SSTR 1 (Homo sapiens, UniProt P30872); SSTR 3 (Homo sapiens, UniProt P32745); SSTR 4 (Homo sapiens, UniProt P31391).
Series [1] addresses human somatostatin receptors (SSTR) 2 (Homo sapiens, UniProt P30874).

SSTR 1, sequence (P30872 whole entry): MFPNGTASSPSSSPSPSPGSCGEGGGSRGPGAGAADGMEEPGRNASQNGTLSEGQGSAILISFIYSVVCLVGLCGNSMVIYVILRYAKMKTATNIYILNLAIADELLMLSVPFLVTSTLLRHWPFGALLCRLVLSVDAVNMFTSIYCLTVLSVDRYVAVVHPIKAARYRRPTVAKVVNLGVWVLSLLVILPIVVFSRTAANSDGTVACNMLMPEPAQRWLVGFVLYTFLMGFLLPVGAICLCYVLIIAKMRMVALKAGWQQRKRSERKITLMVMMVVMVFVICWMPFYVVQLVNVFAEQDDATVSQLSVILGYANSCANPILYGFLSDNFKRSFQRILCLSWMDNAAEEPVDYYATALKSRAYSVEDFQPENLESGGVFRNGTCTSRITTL
SSTR 3, sequence (P32745 whole entry): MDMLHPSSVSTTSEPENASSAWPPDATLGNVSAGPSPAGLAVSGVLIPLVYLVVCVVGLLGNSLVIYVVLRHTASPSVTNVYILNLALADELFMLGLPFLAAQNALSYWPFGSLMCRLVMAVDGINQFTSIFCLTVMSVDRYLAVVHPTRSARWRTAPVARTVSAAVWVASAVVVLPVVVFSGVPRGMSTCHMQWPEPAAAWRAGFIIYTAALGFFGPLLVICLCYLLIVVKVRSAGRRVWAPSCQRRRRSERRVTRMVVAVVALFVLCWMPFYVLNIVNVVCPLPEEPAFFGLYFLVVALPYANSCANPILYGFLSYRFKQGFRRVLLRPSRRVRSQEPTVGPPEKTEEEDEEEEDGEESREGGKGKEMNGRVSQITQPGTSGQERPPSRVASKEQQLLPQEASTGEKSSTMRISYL
human somatostatin receptors (SSTR) 2, sequence (P30874 whole entry): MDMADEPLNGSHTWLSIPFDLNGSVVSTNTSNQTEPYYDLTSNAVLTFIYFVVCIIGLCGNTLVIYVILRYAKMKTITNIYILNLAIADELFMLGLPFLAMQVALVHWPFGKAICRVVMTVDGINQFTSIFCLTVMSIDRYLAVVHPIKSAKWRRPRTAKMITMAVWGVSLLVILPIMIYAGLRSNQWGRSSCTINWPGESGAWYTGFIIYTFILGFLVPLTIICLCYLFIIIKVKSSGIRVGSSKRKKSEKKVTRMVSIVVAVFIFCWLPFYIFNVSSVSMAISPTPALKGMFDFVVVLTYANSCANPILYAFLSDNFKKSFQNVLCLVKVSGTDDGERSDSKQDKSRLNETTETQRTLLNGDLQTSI
SSTR 4, sequence (P31391 whole entry): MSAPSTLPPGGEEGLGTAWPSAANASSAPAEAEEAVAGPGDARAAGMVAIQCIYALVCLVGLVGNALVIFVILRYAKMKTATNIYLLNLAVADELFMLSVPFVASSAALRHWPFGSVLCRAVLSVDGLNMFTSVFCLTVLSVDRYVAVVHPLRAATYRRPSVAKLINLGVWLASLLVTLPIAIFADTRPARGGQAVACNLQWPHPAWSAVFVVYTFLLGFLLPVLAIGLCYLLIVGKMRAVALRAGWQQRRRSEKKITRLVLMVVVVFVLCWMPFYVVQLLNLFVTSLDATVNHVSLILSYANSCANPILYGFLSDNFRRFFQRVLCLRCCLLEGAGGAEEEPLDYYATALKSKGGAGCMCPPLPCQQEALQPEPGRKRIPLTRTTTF

Turning to `CC(C)[C@@H]1NC(=O)[C@H](CCCCN)NC(=O)[C@@H](Cc2c[nH]c3ccccc23)NC(=O)[C@H](Cc2ccc(O)cc2)NC(=O)[C@@H](NC(=O)[C@H](N)Cc2ccc3ccccc3c2)CSSC[C@@H](C(=O)N[C@H](C(N)=O)[C@@H](C)O)NC1=O` [lanreotide], the affinity result is listed as “high affinity” in series [1], “low affinity” at SSTR 1, “low affinity” on SSTR 3 and “low affinity” at SSTR 4.
